Data taken from the supplement of paper PMC4862054.

Assays:
Conditions in all cases: incubation time: 72 h
MDA-MB-436 [1] = test: normalised response (% of control), CellTiter-Glo; higher = more viable cells (100 = DMSO, 0 = benzethonium chloride kill control)
Method: (§1)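 DSRT, 72 h incubation, CellTox Green / CellTiter-Glo readout. Signal is normalised to DMSO and benzethonium chloride controls. Value is the normalised response at dose 3.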

CAL-120 [2] = test: as above
Method: as §1

DU-4475 [3] = test: as above
Method: as §1

HCC1599 [4] = test: as above
Method: as §1

MDA-MB-231 [5] = test: as above
Method: as §1

Hs578T [6] = test: as above
Method: as §1

SK-BR-3 = test: as above
Method: as §1

CAL-85-1 [7] = test: as above
Method: as §1

BT-549 [8] = test: as above
Method: as §1

HCC1143 [9] = test: as above
Method: as §1

MDA-MB-468 [10] = test: as above
Method: as §1

MDA-MB-453 [11] = test: as above
Method: as §1

MCF-10A [12] = test: as above
Method: as §1

HCC1937 [13] = test: as above
Method: as §1

HDQ-P1 [14] = test: as above
Method: as §1

CAL-148 [15] = test: as above
Method: as §1

MFM-223 [16] = test: as above
Method: as §1

CAL-51 [17] = test: as above
Method: as §1

BT-474 [18] = test: as above
Method: as §1

MDA-MB-436 [19] = test: normalised response (% of control), CellTox Green; higher = less cell death (100 = DMSO, 0 = benzethonium chloride kill control)
In short: (§2)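 Each entry is the normalised signal at a single concentration within a series. The series comprised 5 concentrations in 10-fold steps over a compound-specific 10,000-fold range, placed in 384-well plates into which breast cancer cell lines were seeded as 20 µl suspension and incubated 72 h. CellTox Green (485/520 nm) fluorescence and then CellTiter-Glo luminescence were read, with signals normalised per plate to 0.1 % DMSO (100) and a positive kill control (0).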

CAL-120 [20] = test: as above
In short: as §2

DU-4475 [21] = test: as above
In short: as §2

HCC1599 [22] = test: as above
In short: as §2

MDA-MB-231 [23] = test: as above
In short: as §2

Hs578T [24] = test: as above
In short: as §2

CAL-85-1 [25] = test: as above
In short: as §2

BT-549 [26] = test: as above
In short: as §2

HCC1143 [27] = test: as above
In short: as §2

MDA-MB-468 [28] = test: as above
In short: as §2

MDA-MB-453 [29] = test: as above
In short: as §2

MCF-10A [30] = test: as above
In short: as §2

HCC1937 [31] = test: as above
In short: as §2

CAL-148 [32] = test: as above
In short: as §2

MFM-223 [33] = test: as above
In short: as §2

CAL-51 [34] = test: as above
In short: as §2

BT-474 [35] = test: as above
In short: as §2

HDQ-P1 [36] = test: as above
In short: as §2

| SMILES | normalised response (MDA-MB-436 [1]) | normalised response (CAL-120 [2]) | normalised response (DU-4475 [3]) | normalised response (HCC1599 [4]) | normalised response (MDA-MB-231 [5]) | normalised response (Hs578T [6]) | normalised response (SK-BR-3) | normalised response (CAL-85-1 [7]) | normalised response (BT-549 [8]) | normalised response (HCC1143 [9]) | normalised response (MDA-MB-468 [10]) | normalised response (MDA-MB-453 [11]) | normalised response (MCF-10A [12]) | normalised response (HCC1937 [13]) | normalised response (HDQ-P1 [14]) | normalised response (CAL-148 [15]) | normalised response (MFM-223 [16]) | normalised response (CAL-51 [17]) | normalised response (BT-474 [18]) | normalised response (MDA-MB-436 [19]) | normalised response (CAL-120 [20]) | normalised response (DU-4475 [21]) | normalised response (HCC1599 [22]) | normalised response (MDA-MB-231 [23]) | normalised response (Hs578T [24]) | normalised response (CAL-85-1 [25]) | normalised response (BT-549 [26]) | normalised response (HCC1143 [27]) | normalised response (MDA-MB-468 [28]) | normalised response (MDA-MB-453 [29]) | normalised response (MCF-10A [30]) | normalised response (HCC1937 [31]) | normalised response (CAL-148 [32]) | normalised response (MFM-223 [33]) | normalised response (CAL-51 [34]) | normalised response (BT-474 [35]) | normalised response (HDQ-P1 [36]) |
| --- | --- | --- | --- | --- | --- | --- | --- | --- | --- | --- | --- | --- | --- | --- | --- | --- | --- | --- | --- | --- | --- | --- | --- | --- | --- | --- | --- | --- | --- | --- | --- | --- | --- | --- | --- | --- | --- |
| Nc1nc(OCc2cc(Br)cs2)c2[nH]cnc2n1 [Lomeguatrib] (100 nM) | 102% | 99.2% | 101% | 111% | 98.2% | 99% | 106% | 101% | 99.2% | 106% | 95.4% | 95.2% | 106% | 101% | 106% | 102% | 100% | 84.8% | 98.8% | 98.3% | 100% | 101% | 100% | 110% | 100% | 103% | 95.1% | 96.5% | 134% | 106% | 97.3% | 104% | 63.5% | 103% | 92.9% | 102% | – |
| CN1CCN(CCOc2cc(OC3CCOCC3)c3c(Nc4c(Cl)ccc5c4OCO5)ncnc3c2)CC1 [Saracatinib] (100 nM) | 95.1% | 95.1% | 93.9% | 111% | 78.7% | 104% | 109% | 102% | 104% | 96.1% | 95.5% | 106% | 78.2% | 94.2% | 93.5% | 98.5% | 94.6% | 106% | 84.4% | 97% | 99% | 102% | 94.3% | 90.6% | – | 88.8% | – | 56.8% | – | 106% | 89.4% | 88.4% | 84.5% | – | 90.7% | 99.5% | 90.7% |
| Cc1ccc(NC(=O)c2ccc(CN3CCN(C)CC3)cc2)cc1Nc1nccc(-c2cccnc2)n1 [Imatinib] (100 nM) | 103% | 106% | 103% | 97% | 96.8% | 106% | 105% | 97.9% | 109% | 104% | 106% | 111% | 104% | 98% | 98.6% | 111% | 107% | 107% | 99% | 110% | 96.8% | 102% | 108% | 119% | 62.7% | 102% | 104% | 63.2% | 110% | 102% | 70.4% | 112% | – | 101% | 106% | 99.8% | 111% |
| c1ccc([C@H]2CN3CCSC3=N2)cc1 [Levamisole] (100 nM) | 107% | 104% | 107% | 106% | 103% | 110% | 108% | 103% | 98.3% | 102% | 113% | 110% | 110% | 96.8% | 100% | 114% | 113% | 101% | 106% | 99.2% | 102% | 101% | 104% | – | 76.6% | 107% | 99.2% | 93.9% | 120% | 101% | 87.5% | 76.8% | 103% | 106% | 112% | 100% | 102% |
| CN(C)CCN1C(=O)c2cccc3cc(N)cc(c23)C1=O [Amonafide] (100 nM) | 99.5% | 100% | 99.2% | 74.9% | 111% | 100% | 95.3% | 93.1% | 106% | 100% | 96.8% | 89.3% | 99.5% | 98.8% | 102% | 93.8% | 101% | 79.1% | 106% | 80.1% | 97.8% | 97.2% | 115% | 81.1% | – | 101% | 106% | 114% | 144% | 104% | 103% | 104% | 99.3% | 106% | 95.2% | 98.5% | 81.9% |
| CC(C)(C#N)c1cc(Cn2cncn2)cc(C(C)(C)C#N)c1 [Anastrozole] (100 nM) | 104% | 101% | 107% | 100% | 97.4% | 113% | 106% | 98.6% | 104% | 97% | 91.3% | 105% | 112% | 95.3% | 102% | 98.8% | 104% | 67.3% | 104% | 93.3% | 99.9% | 103% | 102% | 106% | 87% | 101% | 103% | 102% | – | 102% | 74.4% | 99.9% | 106% | 100% | 73.3% | 102% | 97.9% |
| CNNCc1ccc(C(=O)NC(C)C)cc1 [Procarbazine] (100 nM) | 95.4% | 106% | 101% | 107% | 105% | 104% | 105% | 101% | 109% | 108% | 99.4% | 104% | 109% | 103% | 105% | 104% | 103% | 102% | 100% | 103% | 103% | 107% | 98.7% | 119% | 63.4% | 99.7% | 102% | 99.4% | 95.5% | 106% | 98.5% | 94.1% | 102% | – | 112% | 102% | – |
| Cn1cncc1[C@@](N)(c1ccc(Cl)cc1)c1ccc2c(c1)c(-c1cccc(Cl)c1)cc(=O)n2C [Tipifarnib] (100 nM) | 71.6% | 89.3% | 77.8% | 91.5% | 92.7% | 83.1% | 69.3% | 104% | 86.9% | 88.8% | 74.9% | 75.7% | 83.9% | 80.8% | 81.2% | 85.3% | 82.6% | 72% | 87.6% | 20.8% | 90.6% | 98.1% | 107% | – | 57.8% | 108% | 107% | 104% | 118% | 98.7% | 99.7% | 99.6% | 92.2% | 99.9% | 63.4% | 98.2% | 103% |
| Nc1ncnc2c1c(COc1cccc(Cl)c1)nn2C1CCOCC1 (100 nM) | 104% | 101% | 100% | 102% | 108% | 78.4% | 109% | 103% | 98.8% | 104% | 102% | 93.5% | 110% | 95.5% | 101% | 109% | 105% | 84.5% | 102% | 102% | 103% | 109% | 114% | 119% | 51.6% | 108% | 98.5% | 95.8% | – | 111% | 109% | 112% | 107% | 103% | 101% | 102% | 102% |
